Reference: patent US9938273B2 (Plexxikon Inc., priority 2015, dated 2018)

Legend:
FLT3-ITD = molecular target: T1, FLT3-ITD (Homo sapiens, UniProt P36888); experiment: AlphaScreen kinase assay with recombinant enzyme, FLT3-ITD; assay type: biochemical; settings: 8pt; read-out: FLT3_ITD 8pt: IC50
T1 sequence (P36888 1-993): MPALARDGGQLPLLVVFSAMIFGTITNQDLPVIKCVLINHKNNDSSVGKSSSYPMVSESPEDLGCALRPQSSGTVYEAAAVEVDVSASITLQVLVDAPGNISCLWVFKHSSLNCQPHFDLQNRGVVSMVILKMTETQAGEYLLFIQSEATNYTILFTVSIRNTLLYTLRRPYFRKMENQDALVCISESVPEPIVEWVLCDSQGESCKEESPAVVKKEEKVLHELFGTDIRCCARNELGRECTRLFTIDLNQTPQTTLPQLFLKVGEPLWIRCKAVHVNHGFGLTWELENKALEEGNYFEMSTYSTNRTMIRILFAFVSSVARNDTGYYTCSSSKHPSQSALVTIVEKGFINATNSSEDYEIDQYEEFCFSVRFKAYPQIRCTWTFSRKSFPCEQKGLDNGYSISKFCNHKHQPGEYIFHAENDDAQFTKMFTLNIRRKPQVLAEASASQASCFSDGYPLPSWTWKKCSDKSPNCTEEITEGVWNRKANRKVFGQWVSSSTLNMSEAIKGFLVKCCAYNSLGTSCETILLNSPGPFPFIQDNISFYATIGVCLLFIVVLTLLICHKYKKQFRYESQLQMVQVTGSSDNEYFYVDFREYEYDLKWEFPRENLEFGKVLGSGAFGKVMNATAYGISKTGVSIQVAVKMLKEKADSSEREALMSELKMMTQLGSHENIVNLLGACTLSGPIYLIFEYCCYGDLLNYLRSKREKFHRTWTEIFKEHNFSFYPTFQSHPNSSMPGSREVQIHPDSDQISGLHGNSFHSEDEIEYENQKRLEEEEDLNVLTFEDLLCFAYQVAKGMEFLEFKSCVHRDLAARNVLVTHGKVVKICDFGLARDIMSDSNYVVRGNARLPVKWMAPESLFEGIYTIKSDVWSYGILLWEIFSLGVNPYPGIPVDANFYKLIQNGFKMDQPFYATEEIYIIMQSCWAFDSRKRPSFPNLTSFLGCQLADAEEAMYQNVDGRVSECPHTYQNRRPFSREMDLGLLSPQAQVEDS
Method in brief: (§1)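 Tyrosine phosphorylation of biotin-poly(Glu4-Tyr) substrate by recombinant enzyme is detected with PY20 acceptor and streptavidin donor beads after room-temperature incubations of 20 and 60 min. IC50 values were derived at a final 10 μM (FLT3-D835Y, FLT3-ITD) or 100 μM (c-KIT).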

c-KIT = molecular target: T2, c-KIT (Homo sapiens, UniProt P10721); experiment: AlphaScreen kinase assay with recombinant enzyme, c-KIT; assay type: biochemical; settings: 100ATP, 8pt, GMean
T2 construct: purchased Millipore 14-559K
T2 sequence (P10721 26-976): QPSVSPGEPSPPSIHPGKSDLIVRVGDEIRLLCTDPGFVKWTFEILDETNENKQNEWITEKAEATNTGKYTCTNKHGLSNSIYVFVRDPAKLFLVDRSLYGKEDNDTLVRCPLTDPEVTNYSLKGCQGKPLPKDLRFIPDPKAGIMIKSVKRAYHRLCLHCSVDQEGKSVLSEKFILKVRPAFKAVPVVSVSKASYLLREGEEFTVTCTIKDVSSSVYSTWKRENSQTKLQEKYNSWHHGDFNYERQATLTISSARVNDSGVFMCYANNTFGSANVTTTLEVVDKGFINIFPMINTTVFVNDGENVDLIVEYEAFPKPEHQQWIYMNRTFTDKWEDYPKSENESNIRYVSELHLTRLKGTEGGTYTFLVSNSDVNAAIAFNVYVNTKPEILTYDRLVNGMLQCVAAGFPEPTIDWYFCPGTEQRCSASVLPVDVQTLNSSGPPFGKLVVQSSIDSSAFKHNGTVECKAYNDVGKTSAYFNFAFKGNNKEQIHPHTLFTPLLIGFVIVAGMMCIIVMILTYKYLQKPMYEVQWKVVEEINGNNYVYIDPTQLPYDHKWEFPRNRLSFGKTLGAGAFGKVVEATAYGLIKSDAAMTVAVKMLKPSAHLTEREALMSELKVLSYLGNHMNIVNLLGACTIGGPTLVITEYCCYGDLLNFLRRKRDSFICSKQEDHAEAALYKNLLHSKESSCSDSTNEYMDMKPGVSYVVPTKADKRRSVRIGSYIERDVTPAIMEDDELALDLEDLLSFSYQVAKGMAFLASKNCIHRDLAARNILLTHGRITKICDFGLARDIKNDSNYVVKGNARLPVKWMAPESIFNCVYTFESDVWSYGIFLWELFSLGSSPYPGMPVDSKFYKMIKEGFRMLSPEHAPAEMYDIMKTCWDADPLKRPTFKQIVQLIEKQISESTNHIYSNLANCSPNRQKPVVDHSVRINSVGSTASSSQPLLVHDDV
Method in brief: as §1

IC50 (FLT3-ITD) [µM]	IC50 (c-KIT) [µM]	Compound
0.0001 to 10	0.0001 to 10	CNC1CCN(C(=O)c2n[nH]c3ccc(-c4cnc5[nH]c(-c6ccccc6)cc5c4)cc23)C1 (centres unmarked) [Compound P-0028, [3-(methylamino)pyrrolidin-1-yl]-[5-(2-phenyl-1H-pyrrolo[2,3-b]pyridin-5-yl)-1H-indazol-3-yl]methanone]
0.0001 to 10	0.0001 to 10	CNC1CCN(C(=O)c2cccc(-c3cnc4[nH]c(-c5ccccc5)cc4c3)n2)C1 (centres unmarked) [Compound P-0040, [3-(methylamino)pyrrolidin-1-yl]-[6-(2-phenyl-1H-pyrrolo[2,3-b]pyridin-5-yl)-2-pyridyl]methanone]
0.0001 to 10	0.0001 to 10	CNC1CCN(C(=O)c2cccc(-c3cnc4[nH]c(-c5cn(C)nc5C)cc4c3)n2)C1 (centres unmarked) [Compound P-0049, [6-[2-(1,3-dimethylpyrazol-4-yl)-1H-pyrrolo[2,3-b]pyridin-5-yl]-2-pyridyl]-[3-(methylamino)pyrrolidin-1-yl]methanone]
0.0001 to 10	0.0001 to 10	c1ccc(-c2cc3cc(-c4cccc(OC5CCNCC5)n4)cnc3[nH]2)cc1 [Compound P-0050, 2-phenyl-5-[6-(4-piperidyloxy)-2-pyridyl]-1H-pyrrolo[2,3-b]pyridine]
0.0001 to 10	0.0001 to 10	CNC1CN(C(=O)c2cccc(-c3cnc4[nH]c(-c5ccccc5)cc4c3)n2)C1 [Compound P-0052, [3-(methylamino)azetidin-1-yl]-[6-(2-phenyl-1H-pyrrolo[2,3-b]pyridin-5-yl)-2-pyridyl]methanone]
0.0001 to 10	0.0001 to 10	N[C@H]1CCN(C(=O)c2ncc(-c3cnc4[nH]c(-c5ccccc5)cc4c3)s2)C1 [Compound P-0054, [(3S)-3-aminopyrrolidin-1-yl]-[5-(2-phenyl-1H-pyrrolo[2,3-b]pyridin-5-yl)thiazol-2-yl]methanone]
0.0001 to 10	0.0001 to 10	CNC1CCN(C(=O)c2cccc(-c3cnc4[nH]c(-c5ccc(F)cc5)cc4c3)n2)C1 (centres unmarked) [Compound P-0055, [6-[2-(4-fluorophenyl)-1H-pyrrolo[2,3-b]pyridin-5-yl]-2-pyridyl]-[3-(methylamino)pyrrolidin-1-yl]methanone]
0.0001 to 10	0.0001 to 10	CN[C@@H]1CCN(C(=O)c2cccc(-c3cnc4[nH]c(-c5ccccc5)cc4c3)n2)C1 [Compound P-0058, [(3R)-3-(methylamino)pyrrolidin-1-yl]-[6-(2-phenyl-1H-pyrrolo[2,3-b]pyridin-5-yl)-2-pyridyl]methanone]
0.0001 to 10	0.0001 to 10	CNC1CCN(C(=O)c2cccc(-c3cnc4[nH]c(-c5ccnc(OC)c5)cc4c3)n2)C1 (centres unmarked) [Compound P-0060, [6-[2-(2-methoxy-4-pyridyl)-1H-pyrrolo[2,3-b]pyridin-5-yl]-2-pyridyl]-[3-(methylamino)pyrrolidin-1-yl]methanone]
0.0001 to 10	10 to 50	CNC1CCN(C(=O)c2cccc(-c3cnc4[nH]c(-c5cnn(CC(F)(F)F)c5)cc4c3)n2)C1 (centres unmarked) [Compound P-0061, [3-(methylamino)pyrrolidin-1-yl]-[6-[2-[1-(2,2,2-trifluoroethyl)pyrazol-4-yl]-1H-pyrrolo[2,3-b]pyridin-5-yl]-2-pyridyl]methanone]
0.0001 to 10	10 to 50	CNC1CCN(C(=O)c2cccc(-c3cnc4[nH]c(-c5cccc(C#N)c5)cc4c3)n2)C1 (centres unmarked) [Compound P-0062, 3-[5-[6-[3-(methylamino)pyrrolidine-1-carbonyl]-2-pyridyl]-1H-pyrrolo[2,3-b]pyridin-2-yl]benzonitrile]
0.0001 to 10	0.0001 to 10	CNC1CCN(S(=O)(=O)c2cccc(-c3cnc4[nH]c(-c5ccccc5)cc4c3)n2)C1 (centres unmarked) [Compound P-0063, N-methyl-1-[[6-(2-phenyl-1H-pyrrolo[2,3-b]pyridin-5-yl)-2-pyridyl]sulfonyl]pyrrolidin-3-amine]
0.0001 to 10	0.0001 to 10	CN1CCC(NC(=O)c2cccc(-c3cnc4[nH]c(-c5ccccc5)cc4c3)n2)C1 (centres unmarked) [Compound P-0064, N-(1-methylpyrrolidin-3-yl)-6-(2-phenyl-1H-pyrrolo[2,3-b]pyridin-5-yl)pyridine-2-carboxamide]
